Target: autotaxin (Homo sapiens, UniProt Q13822)
Assay: Autotaxin inhibitor screening assay (phosphodiesterase activity, p-nitrophenol cleaved from bis-(p-nitrophenyl) phosphate, absorbance 410 nm)
Type: biochemical
Details: pH 9, compound at 30 μM; BNPP 3 mM, pH 9.0, 37° C., 30 minutes; read-out: Inhibition
Description: As described above, the compounds in the present disclosure have the effect of inhibiting the activity of autotaxin, and can be used as autotaxin inhibitors. One method for inhibiting activity of autotaxin in environment is administering to the environment an effective amount of the compound of Formula (I). Please refer to the following experiment, the phosphodiesterase activity of autotaxin was measured using the p-nitrophenol that is a yellow product cleaved by autotaxin from the bis-(p-nitrophenyl) phosphate. Compound samples (10 μl) were incubated with autotaxin (10 μl) in a final volume of 200 μl assay buffer (5 mM CaCl2, 50 mM Tris-HCl, pH 9.0) containing bis-(p-nitrophenyl) phosphate (BNPP) at a final concentration of 3 mM at 37° C. After 30 minutes, absorbance at 410 nm of the reacted solution was measured. The percent inhibition for each test article (TA) (compound) was determined using the following equation. % Inhibition=(O.D.vehicle−O.D.TA)/O.D.vehicle×100

**Q.** How did the inhibition at 30 µM turn out when `O=C1c2ccc(O)cc2CCC1CN1CCN(C(=O)OCc2cc(Cl)cc(Cl)c2)CC1` (stereo not drawn) [Compound 85] was run?
**A.** > 80%

**Q.** `O=C(O)c1ccc(COc2ccc3c(c2)C/C(=C\c2cc(Cl)cc(C(F)(F)F)c2)C3=O)cc1` [Compound 129] was tested. Which inhibition at 30 µM did it give?
**A.** 50 to 80%

**Q.** How did the inhibition at 30 µM turn out when `O=C(O)c1ccc(/C=C2\CCc3c(OCc4cc(F)c(F)cc4F)cccc3C2=O)cc1` [Compound 46] was run?
**A.** 50 to 80%

**Q.** With `O=C(Nc1ccc2c(c1)C/C(=C\c1cccc(C(F)(F)F)c1)C2=O)OCc1ccccc1` [Compound 26] as the compound, how does the inhibition at 30 µM read?
**A.** < 50%

**Q.** With `O=C(NCc1cc(F)ccc1F)c1ccc(CC2Cc3cc(O)ccc3C2=O)cc1` (stereo not drawn) [Compound 32] as the compound, how does the inhibition at 30 µM read?
**A.** < 50%

**Q.** With `O=C(O)c1ccc(COc2ccc3c(c2)CC(Cc2cc(Cl)cc(Cl)c2)C3=O)cc1` (stereo not drawn) [Compound 134] as the compound, how does the inhibition at 30 µM read?
**A.** > 80%

**Q.** Which inhibition at 30 µM does the source give for `O=C(Nc1ccc2c(c1)C/C(=C\c1ccc(C(=O)O)cc1)C2=O)OCc1ccccc1` [Compound 28] here?
**A.** < 50%

**Q.** For `CS(=O)(=O)N1CCN(C(=O)c2ccc(COc3ccc4c(c3)C/C(=C\c3cc(Cl)cc(Cl)c3)C4=O)cc2)CC1` [Compound 121], which inhibition at 30 µM is on record?
**A.** < 50%

**Q.** Which inhibition at 30 µM does the source give for `O=C1/C(=C/c2ccc(OCCc3ccc(F)cc3)cc2)CCc2cc(O)ccc21` [Compound 100] here?
**A.** < 50%

**Q.** Which inhibition at 30 µM does the source give for `O=C1/C(=C/c2ccc(OCCOc3ccc(F)cc3F)cc2)CCc2cc(O)ccc21` [Compound 101] here?
**A.** < 50%

**Q.** With `O=C1/C(=C/c2cccc(C(F)(F)F)c2)CCc2cc(OCc3ccc(F)c(F)c3)ccc21` [Compound 93] as the compound, how does the inhibition at 30 µM read?
**A.** 50 to 80%

**Q.** `O=C(O)c1ccc(CC2CCc3cc(OCCc4ccc(F)cc4)ccc3C2=O)cc1` (stereo not drawn) [Compound 51] was tested. Which inhibition at 30 µM did it give?
**A.** > 80%

**Q.** How did the inhibition at 30 µM turn out when `O=C(Cc1ccc(F)c(F)c1)Nc1ccc(CC2CCc3cc(O)ccc3C2=O)cc1` (stereo not drawn) [Compound 69] was run?
**A.** < 50%

**Q.** With `O=C(OCc1ccc(F)c(F)c1)c1ccc(CC2CCc3cc(OCc4ccc(F)c(F)c4)ccc3C2=O)cc1` (stereo not drawn) [Compound 58] as the compound, how does the inhibition at 30 µM read?
**A.** > 80%

**Q.** `O=C(NCCc1ccc(Cl)c(Cl)c1)c1ccc(CC2CCc3cc(O)ccc3C2=O)cc1` (stereo not drawn) [Compound 60] was tested. Which inhibition at 30 µM did it give?
**A.** 50 to 80%

**Q.** `COC(=O)c1ccc(COc2ccc3c(c2)C/C(=C\c2ccc(Cl)c(F)c2)C3=O)cc1` [Compound 88] was tested. Which inhibition at 30 µM did it give?
**A.** > 80%

**Q.** Which inhibition at 30 µM does the source give for `O=C(O)c1ccc(/C=C2\Cc3cccc(OCc4cc(F)c(F)cc4F)c3C2=O)cc1` [Compound 11] here?
**A.** 50 to 80%

**Q.** With `O=C(O)c1ccc(COc2ccc3c(c2)C/C(=C\c2cc(Cl)cc(Cl)c2)C3O)cc1` (stereo not drawn) [Compound 133] as the compound, how does the inhibition at 30 µM read?
**A.** 50 to 80%

**Q.** Which inhibition at 30 µM does the source give for `O=C(O)c1ccc(CC2CCc3cc(OCc4cc(F)c(F)cc4F)ccc3C2=O)cc1` (stereo not drawn) [Compound 44] here?
**A.** < 50%

**Q.** With `O=C1/C(=C/c2cccc(C(F)(F)F)c2)Cc2ccc(OCc3ccc(F)c(F)c3)cc21` [Compound 7] as the compound, how does the inhibition at 30 µM read?
**A.** 50 to 80%

**Q.** `O=C(Nc1ccc2c(c1)C/C(=C\c1ccc(C(F)(F)F)cc1)C2=O)OCc1ccccc1` [Compound 27] was tested. Which inhibition at 30 µM did it give?
**A.** < 50%
